The subject of one test is Caov-3 cells. Briefly: Caov3 CTG proliferation assay. The following applies: Homo sapiens. Format: cell-based. On the procedure: CTG Assay (Caov3 Cell Line)
Upon treatment, Coav-3 cells were incubated for 10 min at RT with the CellTiter-Glo reagent (G7571, Promega). Measurement of the luminescence signal was performed on a microplate reader (Ensight, PerkinElmer).
Caov3 CTG Assay—Proliferation Assay

A further test has as its target METTL3/14 (Homo sapiens (Human), UniProt Q86U44).
The test system of another test is KASUMI-1 cells. Briefly: Kasumi cell assay (CellTiter-Glo cell growth). The following applies: Homo sapiens. Format: cell-based. The protocol:
Upon treatment, Kasumil cells were incubated for 10 min at RT with the CellTiter-Glo reagent (G7571, Promega). Measurement of the luminescence signal was performed on a microplate reader (Ensight, PerkinElmer).
(In ATP-based viability assays light output follows the ATP content of the culture.)

[1] abbreviates: Caov-3, treated for 120 hours, CellTiter-Glo luminescence, read-out: Caov3 cells IC50.
Setting [2] is: Kasumi 1, treated for 120 hours, CellTiter-Glo luminescence, read-out: KASUMI1 cells IC50.
The mark [3] stands for this setting: Kasumi 1, 120 h, read-out: KASUMI1 cells IC50 nM.

Like-named read-outs stand apart in the source and are kept apart here.

By IC50 is commonly meant the point on the concentration scale where inhibition reaches its midpoint.

Chain of METTL3/14 (Q86U44 whole entry): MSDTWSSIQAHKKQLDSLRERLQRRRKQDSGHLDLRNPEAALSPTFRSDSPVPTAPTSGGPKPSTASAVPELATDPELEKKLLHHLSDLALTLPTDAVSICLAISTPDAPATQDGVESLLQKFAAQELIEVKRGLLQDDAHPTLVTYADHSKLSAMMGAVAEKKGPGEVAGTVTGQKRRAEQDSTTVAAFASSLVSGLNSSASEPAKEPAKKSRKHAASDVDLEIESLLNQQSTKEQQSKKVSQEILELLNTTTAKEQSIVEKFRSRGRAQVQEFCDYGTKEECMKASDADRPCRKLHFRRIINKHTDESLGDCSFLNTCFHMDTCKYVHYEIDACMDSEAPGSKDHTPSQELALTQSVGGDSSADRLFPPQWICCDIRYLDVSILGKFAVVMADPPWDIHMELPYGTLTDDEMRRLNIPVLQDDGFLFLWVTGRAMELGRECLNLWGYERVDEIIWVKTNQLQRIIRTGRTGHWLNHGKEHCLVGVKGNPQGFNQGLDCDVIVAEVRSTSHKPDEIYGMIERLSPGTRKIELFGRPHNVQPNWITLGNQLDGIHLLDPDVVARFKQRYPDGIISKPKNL
Chain of METTL3/14 (Q9HCE5 whole entry partner): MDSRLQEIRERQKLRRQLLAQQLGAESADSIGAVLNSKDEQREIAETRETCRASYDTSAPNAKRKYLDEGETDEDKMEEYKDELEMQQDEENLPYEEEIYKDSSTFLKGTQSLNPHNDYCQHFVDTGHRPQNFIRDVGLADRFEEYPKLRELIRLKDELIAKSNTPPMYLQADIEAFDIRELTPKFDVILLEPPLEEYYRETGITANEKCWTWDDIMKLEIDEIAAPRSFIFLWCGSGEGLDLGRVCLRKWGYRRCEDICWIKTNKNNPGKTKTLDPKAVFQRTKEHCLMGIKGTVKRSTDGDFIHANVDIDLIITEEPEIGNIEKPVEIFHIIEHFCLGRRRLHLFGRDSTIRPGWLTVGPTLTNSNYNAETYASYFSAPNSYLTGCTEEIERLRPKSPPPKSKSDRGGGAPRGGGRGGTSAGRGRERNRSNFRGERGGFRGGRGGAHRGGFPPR

In the case of `O=C(NCc1ccc2cc(CNCC34CC(F)(C3)C4)[nH]c2c1)c1cc(=O)n2ccccc2n1` [Compound 23, N-[(2-{[({3-fluorobicyclo[1.1.1]pentan-1-yl}methyl)amino]methyl}-1H-indol-6-yl)methyl]-4-oxo-4H-pyrido[1,2-a]pyrimidine-2-carboxamide], the IC50 in the test on Caov-3 cells (setting [1]) is 80.1 nM; on METTL3/14, 6.1 nM; with KASUMI-1 cells (setting [2]), 263 nM.
Regarding `O=C(NCc1ccc2cc(CN[C@H]3CCC[C@H]3O)[nH]c2c1)c1cc(=O)n2ccccc2n1` [Compound 38, N-{[2-({[(1S,2R)-2-hydroxycyclopentyl]amino}methyl)-1H-indol-6-yl]methyl}-4-oxo-4H-pyrido[1,2-a]pyrimidine-2-carboxamide], the IC50 in the test on Caov-3 cells (Caov-3, 120 h, read-out: Caov3 cells IC50 nM) is 458 nM; against METTL3/14 it was 6.1 nM; with KASUMI-1 cells (setting [3]), 2310 nM.
As for `O=C(NCc1cc2[nH]c(CNCC3CCC3)cc2cc1F)c1cc(=O)n2ccccc2n1` [Compound 41, N-[[2-[(cyclobutylmethylamino)methyl]-5-fluoro-1H-indol-6-yl]methyl]-4-oxo-pyrido[1,2-a]pyrimidine-2-carboxamide], the IC50 amounted to 192 nM in the test on Caov-3 cells (setting [1]), 6.1 nM against METTL3/14 and 309 nM with KASUMI-1 cells (setting [2]).
On to `O=C(NCc1ccc2cc(CN3CC4(CCC4)C3)[nH]c2c1)c1cc(=O)n2ccccc2n1` [Compound 67, N-[[2-(2-azaspiro[3.3]heptanean-2-ylmethyl)-1H-indol-6-yl]methyl]-4-oxo-pyrido[1,2-a]pyrimidine-2-carboxamide], for which the IC50 with Caov-3 cells (setting [1]) is 482 nM; on METTL3/14, 6.1 nM; with KASUMI-1 cells (setting [2]), 1720 nM.
The like results for `O=C(NCc1ccc2cc(CNCC34CCC(C3)C4)[nH]c2c1)c1cc(=O)n2ccccc2n1` [Compound 76, N-[(2-{[({bicyclo[2.1.1]hexan-1-yl}methyl)amino]methyl}-1H-indol-6-yl)methyl]-4-oxo-4H-pyrido[1,2-a]pyrimidine-2-carboxamide] were, in that order, 242 nM, 6.1 nM and 698 nM.
`CC12CC(CNCc3cc4ccc(CNC(=O)c5cc(=O)n6ccccc6n5)cc4[nH]3)(C1)C2` [Compound 77, N-[(2-{[({3-methylbicyclo[1.1.1]pentan-1-yl}methyl)amino]methyl}-1H-indol-6-yl)methyl]-4-oxo-4H-pyrido[1,2-a]pyrimidine-2-carboxamide]: the figures for the IC50 in the test on Caov-3 cells (setting [1]), against METTL3/14 and in the test on KASUMI-1 cells (setting [2]) were 701 nM, 6.1 nM and 1760 nM, respectively.
The like results for `O=C(NCc1ccc2cc(CN3CC4(CCCC4)C3)[nH]c2c1)c1cc(=O)n2ccccc2n1` [Compound 81, N-{[2-({2-azaspiro[3.4]octan-2-yl}methyl)-1H-indol-6-yl]methyl}-4-oxo-4H-pyrido[1,2-a]pyrimidine-2-carboxamide] were, in that order, 564 nM, 6.1 nM and 1030 nM.
The like results for `O=C(NCc1ccc2cc(CN3CC4(CCCCC4)C3)[nH]c2c1)c1cc(=O)n2ccccc2n1` [Compound 90, N-{[2-({2-azaspiro[3.5]nonan-2-yl}methyl)-1H-indol-6-yl]methyl}-4-oxo-4H-pyrido[1,2-a]pyrimidine-2-carboxamide] were, in that order, 602 nM, 6.1 nM and 1250 nM.
The like results for `CC1(C)CCN(Cc2cc3ccc(CNC(=O)c4cc(=O)n5ccccc5n4)cc3[nH]2)C1` [Compound 92, N-({2-[(3,3-dimethylpyrrolidin-1-yl)methyl]-1H-indol-6-yl}methyl)-4-oxo-4H-pyrido[1,2-a]pyrimidine-2-carboxamide] were, in that order, 598 nM, 6.1 nM and 1610 nM.
In the case of `O=C(NCc1ccc2cc(CN3CC4(CC(F)C4)C3)[nH]c2c1)c1cc(=O)n2ccccc2n1` [Compound 93, N-{[2-({6-fluoro-2-azaspiro[3.3]heptanean-2-yl}methyl)-1H-indol-6-yl]methyl}-4-oxo-4H-pyrido[1,2-a]pyrimidine-2-carboxamide], the values for the IC50 in the test with Caov-3 cells (setting [1]), against METTL3/14 and in the test with KASUMI-1 cells (setting [2]) were 453 nM, 6.1 nM and 1330 nM, respectively.
As for `CC(C)(C)C1CN(Cc2cc3ccc(CNC(=O)c4cc(=O)n5ccccc5n4)cc3[nH]2)C1` [Compound 97, N-({2-[(3-tert-butylazetidin-1-yl)methyl]-1H-indol-6-yl}methyl)-4-oxo-4H-pyrido[1,2-a]pyrimidine-2-carboxamide], the 50% inhibitory concentration (IC50) in the test on Caov-3 cells (setting [1]) amounted to 1020 nM; in the test on KASUMI-1 cells (setting [2]) it was 3090 nM.
With `CC1CC(CNCc2cc3ccc(CNC(=O)c4cc(=O)n5ccccc5n4)cc3[nH]2)C1` (stereo not shown) [Compound 99, N-{[2-({[(3-methylcyclobutyl)methyl]amino}methyl)-1H-indol-6-yl]methyl}-4-oxo-4H-pyrido[1,2-a]pyrimidine-2-carboxamide], the IC50 with Caov-3 cells (setting [1]) stood at 1090 nM; with KASUMI-1 cells (setting [2]), 3260 nM.
Regarding `CC(C)(C)C(C)(C)NCc1cc2ccc(CNC(=O)c3cc(=O)n4ccccc4n3)cc2[nH]1` [Compound 100, 4-oxo-N-[(2-{[(2,3,3-trimethylbutan-2-yl)amino]methyl}-1H-indol-6-yl)methyl]-4H-pyrido[1,2-a]pyrimidine-2-carboxamide], the IC50 in the test on Caov-3 cells (setting [1]) worked out at 685 nM; with KASUMI-1 cells (setting [2]), 2540 nM.
Take `N#CC12CC(CNCc3cc4ccc(CNC(=O)c5cc(=O)n6ccccc6n5)cc4[nH]3)(C1)C2` [Compound 111, N-[(2-{[({3-cyanobicyclo[1.1.1]pentan-1-yl}methyl)amino]methyl}-1H-indol-6-yl)methyl]-4-oxo-4H-pyrido[1,2-a]pyrimidine-2-carboxamide]: the IC50 in the test with KASUMI-1 cells (setting [2]) amounted to 2290 nM.
Consider `O=C(NCc1ccc2cc(CNC3(C4CCC4)CC3)[nH]c2c1)c1cc(=O)n2ccccc2n1` [Compound 116, N-[(2-{[(1-cyclobutylcyclopropyl)amino]methyl}-1H-indol-6-yl)methyl]-4-oxo-4H-pyrido[1,2-a]pyrimidine-2-carboxamide], for which the IC50 against METTL3/14 was 6.1 nM; in the test on KASUMI-1 cells (setting [2]), 5070 nM.
Consider `COc1cc(-c2cn(Cc3ccc4cc(CNCC5CCC5)[nH]c4c3)nn2)c2cncn2c1` [Example 63, N-(cyclobutylmethyl)-1-[6-[[4-(6-methoxyimidazo[1,5-a]pyridin-8-yl)triazol-1-yl]methyl]-1H-indol-2-yl]methanamine], for which the IC50 in the test with Caov-3 cells (setting [1]) was 257 nM; in the test on KASUMI-1 cells (setting [2]) it was 869 nM.
On to `CN(Cc1cc2ccc(CNC(=O)c3cc(=O)n4ccccc4n3)cc2[nH]1)CC1CCC1` [Example 70, N-[[2-[[cyclobutylmethyl(methyl)amino]methyl]-1H-indol-6-yl]methyl]-4-oxo-pyrido[1,2-a]pyrimidine-2-carboxamide], for which the IC50 in the test with KASUMI-1 cells (setting [3]) was 4900 nM.
`COc1cnc(C#N)c(-c2cn(Cc3ccc4cc(CNCC5CCC5)[nH]c4c3)nn2)c1` [Example 151, 3-{1-[(2-{[(Cyclobutylmethyl)amino]methyl}-1H-indol-6-yl)methyl]-1H-1,2,3-triazol-4-yl}-5-methoxy-2-pyridinecarbonitrile]: the IC50 with Caov-3 cells (setting [1]) turned out to be 9060 nM; in the test with KASUMI-1 cells (setting [2]), 7220 nM.
In the case of `N#Cc1ncc(F)cc1-c1cn(Cc2ccc3cc(CNCC4CCC4)[nH]c3c2)nn1` [Example 152, 3-(1-((2-(((cyclobutylmethyl)amino)methyl)-1H-indol-6-yl)methyl)-1H-1,2,3-triazol-4-yl)-5-fluoropicolinonitrile], the IC50 was found to be 5430 nM in the test on Caov-3 cells (setting [1]) and 9960 nM with KASUMI-1 cells (setting [2]).
